Values quoted from earlier work as cited in patent US20250177316A1, “Delayed-Release Granulates of Melatonin, Combinations Comprising Melatonin, Pharmaceutical Compositions and Dietary Supplements Containing Them, and Their Use in the Treatment of Insomnia and for the Reduction of the Time Required to Fall Asleep” (S.I.I.T. S.R.L. - SERVIZIO INTERNAZIONALE IMBALLAGGI …, priority 2022, published 2025).

SMILES | pH of 5% solution in water
CC(O)C(=O)[O-].CC(O)C(=O)[O-].[Ca+2] (centres unmarked) [calcium lactate] | 6-8
CC(O)C(=O)[O-].CC(O)C(=O)[O-].[Mg+2] (centres unmarked) [magnesium lactate] | 6.5-8.5
